Source: patent publication US10538561B2, “Peptide for treating inflammatory diseases” (priority 2015, dated 2020)
Marks after values point to notes of the source that are not given here.

What was measured:
IL-6 = test: LPS stimulated IL-6 secretion in RAW264.7; type: cell-based, Mouse; settings: for IL-6 % decrease with respect to LPS / IL-6 Conc (pg/ml): RAW264.7 + LPS, 24 h
Description: (§1) Effect on pro-inflammatory cytokines against LPS stimulation: TNF-α; IL-6; IL-1-β: Cell lines: Murine macrophage cell line (RAW264.7); test item: IS181; experimental steps: pretreatment of cells with TI for 2 hours; stimulation with LPS (100 ng/ml) for 24 hours; supernatant collection for cytokine analysis; concentration range: o.1 μg/ml-500 μg/ml (duplicate wells); Cytokines: TNF-α; IL-6; IL-1-β; Method of estimating cytokines: ELISA; positive control: dexamethasone.
(§2) Cell line: RAW264.7 (Mouse macrophages); TI treatment regimen: Pretreatment for 2 h; TI Concentration range: 0.1 μg/ml-500 μg/ml (duplicate wells); LPS stimulation: 100 ng/ml; Time point for supernatants collection: 24 h; Method of estimation: ELISA; Positive control: Dexamethasone

[1] = Solution stability in diluents; type: physicochemical; settings: 24 hours
Description: (§3) The solution stability of peptide IS 181 was performed in four different diluents at three different temperatures for 24 hours. Four different pre-formulations of concentration 10 mg/ml were prepared and formulation assay was performed at initial and […] at room temperature.

[2] = tested on: Human Keratinocytes (HaCaT); test: TUNEL assay; type: cell-based; settings: 48 h
Description: Cell lines: Human Keratinocytes (HaCaT); test item (TI): IS181; treatment regimen: treated twice (once after 24 hours)-48 hours; Concentration range: 100 6 g/ml-5000 6 g/ml. […] Cells were sera starved in 1% FBS for 24 hours. Cells were treated with IS181 for 24 hours. After 24 h, cells were again treated with IS181 for 24 hours. After 48 h of first treatment, cells were processed for TUNEL staining. Fold increase in apoptotic cells [TUNEL positive] was calculated with respect to untreated control cells. Positive control: Curcumin, Anthralin, Betullinic acid. […] No increase in TUNEL positive cells was observed from 100 μg/ml-2000 μg/ml.

IFN-γ = test: TNF-α stimulated IFN-γ secretion in HaCaT; type: cell-based, Human; parameters: IFN-γ Conc (μ/ml): unit not given here; settings: for IFN-γ % decrease with respect to TNF-α / IFN-γ Conc (μ/ml): HaCaT + TNF-α, 24 h
Description: Effect on pro-inflammatory cytokines against TNF-α/LPS+PMA stimulation: TNF-α; IFN-γ; TARC; TSLP; IL-6; IL-8: Cell lines: Human keratinocytes (HaCaT); test item (TI); IS181; experimental steps: pre-treatment of cells with TI for 2 hours; stimulation with TNF-α: 20 ng/ml; stimulation with LPS+PMA-10 μg/ml LPS+40 ng/ml PMA; supernatant collection for cytokine analysis after 24 hours; concentration range: 0.1 μg/ml-100 μg/ml (duplicate wells); cytokines: TNF-α; IFN-γ; TARC; TSLP; IL-6; IL-8. Method of estimating cytokines: ELISA; positive control: dexamethasone.
Cell line: HaCaT (Human Keratinocytes); TI Treatment regimen: Pretreatment for 2 h; TI Concentration range: 0.1 μg/ml-100 μg/ml (duplicate wells); TNF-α stimulation: 20 ng/ml; LPS+PMA stimulation: 10 μg/ml LPS+40 ng/ml PMA; Time point for supernatants collection: 24 h; Method of estimation: ELISA; Positive control: Dexamethasone

IL-1-β = test: LPS stimulated IL-1-β secretion in RAW264.7; type: cell-based, Mouse; settings: for IL-1-β % decrease with respect to LPS / IL-1-β Conc: RAW264.7 + LPS, 24 h
Description: as §1, §2

[3] = tested on: Human Keratinocytes (HaCaT); test: Annexin-V assay; type: cell-based; settings: 48 h
Description: Cell lines: Human Keratinocytes (HaCaT); test Item (TI): IS181; Treatment regimen: treated twice (once after 24 hours)-48 hours; concentration range: 100 6 g/ml-5000 6 g/ml. […] (c) cells were treated with IS181 for 24 hours; (d) after 24 hours, cells were again treated with IS181 for 24 hours; (e) after 48 hours of first treatment, cells were stained with Annexin-V reagent and acquired on flow cytometer; (f) fold increase in apoptotic cells (early and late apoptotic) and necrotic cells was calculated with respect to untreated control cells. Positive control: Curcumin. […] (FIG. 4)

[4] = Maximum feasible concentration and formulation stability; type: physicochemical
Description: as §3

[5] = 10% v/v Propylene glycol in 0.9% NaCl (for IM& SC)

With “H-WVQRVVEKFLK-OH [IS181, H-Trp-Val-Gln-Arg-Val-Val-Glu-Lys-Phe-Leu-Lys-OH]” the “IL-6 inhibition as compared to LPS stimulated levels” value (IL-6; RAW264.7) was “good extent of TNF-α and IL-6 inhibition”, the “IL-6 % decrease with respect to LPS” value (IL-6; 0.1 μ/ml) was 57.2% and the “IL-6 Conc (pg/ml)” value (IL-6; 0.1 μ/ml) was 908.7*** pg/ml. For the same substance, the “IL-6 % decrease with respect to LPS” value (IL-6; 1 μ/ml) was 41.2%, the “IL-6 Conc (pg/ml)” value (IL-6; 1 μ/ml) was 1248.3*** pg/ml and the “IL-6 % decrease with respect to LPS” value (IL-6; 5 μ/ml) was 26.3%. The “IL-6 Conc (pg/ml)” value (IL-6; 5 μ/ml) was 1565.9*** pg/ml, the “IL-6 % decrease with respect to LPS” value (IL-6; 10 μ/ml) was 76.4% and the “IL-6 Conc (pg/ml)” value (IL-6; 10 μ/ml) was 501.5*** pg/ml. The “IL-6 % decrease with respect to LPS” value (IL-6; 100 μ/ml) was 35.4%, the “IL-6 Conc (pg/ml)” value (IL-6; 100 μ/ml) was 1371.8*** pg/ml and the “IL-6 % decrease with respect to LPS” value (IL-6; 500 μ/ml) was 68.5%. For the same substance, the “IL-6 Conc (pg/ml)” value (IL-6; 500 μ/ml) was 669.1*** pg/ml, the “inhibition of IL-6 secretion as compared to LPS treated cells” value (IL-6; RAW264.7, 0.1 μg/ml-500 μg/ml) was 26.3%-76.4% and the “% Stability” value ([1]; 0.9% NaCl solution, 2-8° C.) was 93.64%. For the same substance, the “% Stability” value ([1]; 0.9% NaCl solution, 37° C.) was 104.94%, the “% Stability” value ([1]; 0.9% NaCl solution, Room Temperature) was 101.84% and the “% Stability” value ([1]; Phosphate buffer pH 5.0, 2-8° C.) was 96.53%. For the same substance, the “% Stability” value ([1]; Phosphate buffer pH 5.0, 37° C.) was 104.05%, the “% Stability” value ([1]; Phosphate buffer pH 5.0, Room Temperature) was 102.20% and the “% Stability” value ([1]; Phosphate buffer pH 7.4, 2-8° C.) was 97.99%. For the same substance, the “% Stability” value ([1]; Phosphate buffer pH 7.4, 37° C.) was 107.22%, the “% Stability” value ([1]; Phosphate buffer pH 7.4, Room Temperature) was 102.41% and the “% Stability” value ([1]; Water, 2-8° C.) was 94.66%. The “% Stability” value ([1]; Water, 37° C.) was 98.57%, the “% Stability” value ([1]; Water, Room Temperature) was 93.99% and the “increase in TUNEL positive cells” value ([2]; 100 μg/ml-2000 μg/ml) was “No increase”. The “increase in apoptotic cells (TUNEL positive population) vs untreated” value ([2]; 5000 μg/ml) was 28.3%, the “IFN-γ secretion downregulated as compared to TNF-α stimulated cells” value (IFN-γ; 0.1 μg/ml-100) was 27.1%-40.1% and the IFN-γ inhibition (IFN-γ; HaCaT) was “good extent of IFN-γ and TARC inhibition”. The “IFN-γ % decrease with respect to TNF-α” value (IFN-γ; 0.1 μg/ml) was 35.6%, the “IFN-γ Conc (μ/ml)” value (IFN-γ; 0.1 μg/ml) was 30.7*** and the “IFN-γ % decrease with respect to TNF-α” value (IFN-γ; 1 μg/ml) was 36.7%. The “IFN-γ Conc (μ/ml)” value (IFN-γ; 1 μg/ml) was 30.1***, the “IFN-γ % decrease with respect to TNF-α” value (IFN-γ; 5 μg/ml) was 40.1% and the “IFN-γ Conc (μ/ml)” value (IFN-γ; 5 μg/ml) was 28.6***. For the same substance, the “IFN-γ % decrease with respect to TNF-α” value (IFN-γ; 10 μg/ml) was 27.1%, the “IFN-γ Conc (μ/ml)” value (IFN-γ; 10 μg/ml) was 34.7*** and the “IFN-γ % decrease with respect to TNF-α” value (IFN-γ; 100 μg/ml) was 32.0%. The “IFN-γ Conc (μ/ml)” value (IFN-γ; 100 μg/ml) was 32.4***, the “IL-1-β inhibition as compared to LPS stimulated levels” value (IL-1-β; RAW264.7) was “good extent of IL-1-β inhibition” and the “IL-1-β % decrease with respect to LPS” value (IL-1-β; 0.1 μ/ml) was 90.0%. The “IL-1-β Conc” value (IL-1-β; 0.1 μ/ml) was 2.2 pg/mL, the “IL-1-β % decrease with respect to LPS” value (IL-1-β; 1 μ/ml) was 30.3% and the “IL-1-β Conc” value (IL-1-β; 1 μ/ml) was 15.4 pg/mL. For the same substance, the “IL-1-β % decrease with respect to LPS” value (IL-1-β; 5 μ/ml) was 53.7%, the “IL-1-β Conc” value (IL-1-β; 5 μ/ml) was 10.2 pg/mL and the “IL-1-β % decrease with respect to LPS” value (IL-1-β; 10 μ/ml) was 71.9%. For the same substance, the “IL-1-β Conc” value (IL-1-β; 10 μ/ml) was 6.2 pg/mL, the “IL-1-β % decrease with respect to LPS” value (IL-1-β; 100 μ/ml) was 42.4% and the “IL-1-β Conc” value (IL-1-β; 100 μ/ml) was 12.7 pg/mL. For the same substance, the “IL-1-β % decrease with respect to LPS” value (IL-1-β; 500 μ/ml) was 72.6%, the “IL-1-β Conc” value (IL-1-β; 500 μ/ml) was 6.1 pg/mL and the “decrease in IL-1-β level” value (IL-1-β; RAW264.7, 0.1 μg/ml-500 μg/ml) was 30.3%-90%. The “increase in late apoptotic cells vs untreated” value ([3]; 2000 μg/ml) was 2.1 fold, the “increase in necrotic cells vs untreated” value ([3]; 2000 μg/ml) was 7.9 fold and the “increase in early apoptotic cells vs untreated” value ([3]; 5000 μg/ml) was 2.3 fold. The “increase in late apoptotic cells vs untreated” value ([3]; 5000 μg/ml) was 5.3 fold, the “increase in necrotic cells vs untreated” value ([3]; 5000 μg/ml) was 4.5 fold and the MFC ([4]; 0.9% NaCl (for IV)) was greater than 25.0 mg/mL. For the same substance, the “Stability of formulation at RT” value ([4]; 0.9% NaCl (for IV)) was “Up to 24 hrs”, the MFC [4, 5] was greater than 25.0 mg/mL and the “Stability of formulation at RT” value [4, 5] was “Up to 24 hrs”.
